Patent publication US11192863B2, “Antiviral compounds and methods” (Biotron Limited, priority 2003, dated 2021)
Counter-ions that a name gives are not always drawn. Like-named read-outs stand apart in the source and are kept apart here.

What was measured:
[1] = tested on: MHV (strain MHV-A59); conditions: L929 cells
[2] = target: SARS E protein ion channel (Severe acute respiratory syndrome coronavirus, UniProt P59637); assay type: biochemical, SARS-CoV
[3] = target: SARS-CoV E protein (Severe acute respiratory syndrome coronavirus, UniProt P59637); assay type: cell-based
[4] = target: 229E-CoV E-protein (Human coronavirus 229E, UniProt P19741); experiment: Bacterial bio-assay for 229E-CoV E-protein; conditions: halo of growth score; E. coli expressing E protein at 37° C.
[5] = target: Vpu protein (Human immunodeficiency virus type 1 group M subtype B, UniProt P05919); conditions: for Vpu Inhibition (score/# of times tested): halo of growth score between zero and six, XL1-blue E. coli with pPL-Vpu, no adenine, 37° C.
[6] = tested on: human coronavirus OC43; experiment: microbe, parasite or virus in culture; assay type: cell-based; conditions: Betacoronavirus 1, OC43, MRC5, 120 h, MRC-5 cells, 5 days post infection
[7] = tested on: bovine coronavirus (BCV); experiment: BCV plaque assay in MDBK cells; assay type: cell-based; conditions: Betacoronavirus 1; BCV plaques in MDBK cells
[8] = tested on: HIV; assay type: cell-based
[9] = tested on: Dengue 1 strain Hawaii; experiment: Dengue cytoproliferation assay in LLC-MK2 cells (Alamar Blue); assay type: cell-based, Dengue virus; conditions: 7 days

| Compound | Percent reduction in Plaque number/# experiments ([1]; 1 uM) | Percent reduction in Plaque number/# experiments ([1]; 10 uM) | Percent reduction in Plaque number/# experiments ([1]; 20 uM) | SARS E protein Inhibition (score/# of times tested) [3] | 229E E protein Inhibition (score) [4] [score] | Vpu Inhibition (score/# of times tested) [5] | inhibition at 2.5 µM [6] [%] | also measured |
| --- | --- | --- | --- | --- | --- | --- | --- | --- |
| N=C(N)NC(=O)/C=C/c1ccccc1Br [(2-Bromocinnamoyl)guanidine] | 52/3% | 89/3% | 91/2% | 2.47/3 score | 0.9 | 3.7/2 score | – | % Reduction of average current by 100 μM [2]: 88 ± 6% |
| NC(N)=NC(=O)/C=C/c1ccc(Cl)cc1 [(4-Chlorocinnamoyl)guanidine] | 43/3% | 88/2% | 97/2% | 1.94/2 score | 1.4 | 2.7/5 score | 36 | – |
| CC(C)c1ccc(/C=C/C(=O)NC(=N)N)cc1 [4-isopropylcinnamoylguanidine] | 41/3% | 93/3% | 95/3% | 3.16/2 score | 4.9 | 1.4/2 score | 68 | – |
| N=C(N)NC(=O)/C=C/c1c(Cl)cccc1Cl [2,6-dichlorocinnamoylguanidine] | 40/1% | 70/1% | 91/1% | 2.25/1 score | 1.0 | 2.88/2 score | 27 | – |
| N=C(N)NC(=O)/C=C/c1ccc(Cl)cc1Cl [2,4-dichlorocinnamolyguanidine] | 43/1% | 73/1% | 76/1% | 0.63/2 score | – | 0.63/2 score | 36 | – |
| N=C(N)NC(=O)/C=C/c1ccc(Cl)c(Cl)c1 [3,4-dichlorocinnamoylguanidine] | 50/2% | 96/1% | 91/2% | 4.15/2 score | 4.4 | 2.9/3 score | 90 | – |
| NC(N)=NC(=O)/C=C/c1ccc(Br)cc1 [(4-Bromocinnamoyl)guanidine] | 52/3% | 98/3% | – | 1.69/2 score | 2.0 | 2.5/4 score | 29 | Toxic (noted in place of plaque reduction) ([1]; 20 uM): Toxic/2 |
| N=C(N)NC(=O)/C=C/c1cc(Br)ccc1F [5-bromo-2-fluorocinnamoylguanidine] | 31/1% | 81/2% | – | 2.00/1 score | 1.4 | 3.5/2 score | – | Toxic (noted in place of plaque reduction) ([1]; 20 uM): Toxic |
| CC(C)(C)c1cccc(/C=C/C(=O)NC(=N)N)c1 [3-t-butylcinnamoylguanidine] | 49/2% | 94/3% | – | 2.00/1 score | 3.9 | 2.06/2 score | – | Toxic (noted in place of plaque reduction) ([1]; 20 uM): Toxic |
| COc1ccccc1/C=C/C(=O)NC(=N)N [(2-Methoxycinnamoyl)guanidine] | 23/2% | 85/2% | 90/2% | 0.69/2 score | 1.1 | 1.7/4 score | – | – |
| N=C(N)NC(=O)c1ccc(-c2ccccc2)cc1 [4-phenylbenzoylguanidine] | 5/1% | 24/1% | 32/1% | 0.63/2 score | 2.3 | 2.75/5 score | – | EC50 [7]: 190 µM; Bacterial assay rank order ([5]; Table 19a, rank among 12 compounds, 1 = highest score): 7; Bacterial assay rank order ([5]; Table 19b): 7; Vpu Bacterial score ([5]; Table 19b): 2.8; Percent of Positive Control ([8]; Drug Conc. 0.625 μM): 10%; Percent of Positive Control ([8]; Drug Conc. 1.25 μM): 216%; Percent of Positive Control ([8]; Drug Conc. 2.5 μM): 9%; Percent of Positive Control ([8]; Drug Conc. 5 μM): 4%; Percent of Positive Control ([8]; Drug Conc. 10 μM): 26%; At least 1x log reduction seen in p24 assay? ([8]; Table 19b, yes/no): no |
| COc1ccc(/C=C/C(=O)NC(=N)N)cc1 [(4-Methoxycinnamoyl)guanidine] | 51/3% | 96/4% | 98/4% | 0.88/2 score | 0.1 | 2.13/3 score | – | – |
| N=C(N)NC(=O)/C=C/c1ccc2ccccc2c1 [3-(2-napthyl)acryloylguanidine] | 40/1% | 93/1% | 93/1% | 3.88/1 score | 3.0 | 1.56/2 score | – | – |
| N=C(N)NC(=O)/C=C/c1ccc(-c2ccccc2)cc1 [4-phenylcinnamoylguanidine] | 21/3% | 36/1% | 53/1% | 2.75/2 score | 1.0 | 1.1/2 score | – | – |
| N/C(=N\C(=O)c1nc(Cl)c(N)nc1N)NCc1ccc(Cl)cc1Cl [2′4 DichloroBenzamil HCl] | 0/3% | 0/3% | 12/2% | 3.00/2 score | – | 1.7/2 score | – | % Reduction of average current by 100 μM [2]: 78 ± 0% |
| N=C(N)NC(=O)/C=C/c1cccc(OC(F)(F)F)c1 [3-(trifluoromethoxy)cinnamoylguanidine] | 41/2% | 90/3% | 100/1% | 2.71/1 score | 4.1 | 2.44/2 score | 4 | – |
| Cc1ccc(/C=C/C(=O)NC(=N)N)cc1 [4-methylcinnamoylguanidine] | 20/1% | 89/1% | 93/1% | 1.25/1 score | 0.3 | 2.1/2 score | – | – |
| O=C(CCc1ccccc1)NC(=Nc1ccccc1)NC(=O)CCc1ccccc1 [N,N′-bis(3phenylpropanoyl)-N″-phenylguanidine] | 1/3% | 40/4% | 67/3% | 1.33/3 score | 0.1 | 2.25/3 score | – | % Reduction of average current by 100 μM [2]: 88 ± 6% |
| N=C(N)NC(=O)/C=C/c1ccccc1Cl [(2-Chlorocinnamoyl)guanidine] | 53/3% | 88/3% | 95/2% | 3.1/3 score | 0.1 | 4.0/4 score | 96 | Antiviral Percent of Negative Control ([9]; Drug Conc. 0.625 μM): 64.3%; Antiviral Percent of Negative Control ([9]; Drug Conc. 1.25 μM): 52.5%; Antiviral Percent of Negative Control ([9]; Drug Conc. 2.5 μM): 22.7%; Antiviral Percent of Negative Control ([9]; Drug Conc. 5 μM): 7.7%; Antiviral Percent of Negative Control ([9]; Drug Conc. 10 μM): 8.4% |
| N=C(N)NC(=O)/C=C/c1cccc(-c2ccccc2)c1 [3-phenylcinnamoylguanidine] | 64/3% | 86/2% | – | 3.13/1 score | 2.9 | 2.54/3 score | – | Toxic (noted in place of plaque reduction) ([1]; 20 uM): Toxic |
| COc1ccc(Br)cc1/C=C/C(=O)NC(=N)N [5-bromo-2-methoxycinnamoylguanidine] | 66/1% | 100/1% | – | – | 3.6 | 1.9/2 score | 24 | – |
